Measured values: ChEMBL document CHEMBL6134824, “LPS-enriched interaction drives spectrum conversion in antimicrobial peptides: Design and optimization of AA16 derivatives for targeting gram-negative bacteria” (Eur J Med Chem, 2025)
The source made the active and inactive calls. The rule behind the calls is not given here.

Key:
Escherichia coli [1] = test: Antibacterial activity against Escherichia coli NCTC 10418 incubated for 16 hrs under shaking condition by standard broth microdilution method; format: functional
Pseudomonas aeruginosa [2] = test: Antibacterial activity against Pseudomonas aeruginosa ATCC 27853 incubated for 16 hrs under shaking condition by standard broth microdilution method; format: functional
[3] = Hemolytic activity at mouse Red blood cell assessed as hemolysis; format: toxicity, cell-based; details: erythrocyte
[4] = Hemolytic activity at horse Erythrocyte assessed as hemolysis; format: toxicity, cell-based, Equus caballus; details: horse erythrocytes
Staphylococcus aureus [5] = test: Antibacterial activity against Staphylococcus aureus NCTC 10788 incubated for 16 hrs under shaking condition by standard broth microdilution method; format: functional
Staphylococcus aureus [6] = test: Antibacterial activity against methicillin-resistant Staphylococcus aureus ATCC 43300 incubated for 16 hrs under shaking condition by standard broth microdilution method; format: functional
Cell membrane [7] = test: Induction of cytoplasmic membrane depolarization in […] assessed as increase in fluorescence intensity by DISC3-5 dye based fluorescence analysis; format: subcellular
Cell membrane [8] = test: Disruption of cell membrane integrity in Staphylococcus aureus assessed as reduction in green to red fluorescence by STYO 9 and PI staining based confocal microscopy analysis; format: subcellular
Cell membrane [9] = test: Induction of inner membrane disruption in […] assessed as change in fluorescence intensity at 8 times MIC by DISC3-5 dye based fluorescence analysis; format: subcellular
Cell membrane [10] = test: Disruption of cell membrane integrity in methicillin-resistant Staphylococcus aureus assessed as reduction in green to red fluorescence by STYO 9 and PI staining based confocal microscopy analysis; format: subcellular
Cell membrane [11] = test: Induction of inner membrane disruption in Pseudomonas aeruginosa assessed as fluorescence intensity at 8 times MIC by DISC3-5 dye based fluorescence analysis; format: subcellular
Lipopolysaccharide (LPS) [12] = test: Disaggregation of FITC-labeled Escherichia coli LPS assessed as fluorescence intensity at 1 uM measured for 30 mins relative to control
Lipopolysaccharide (LPS) [13] = test: Binding affinity to LPS (unknown origin) at 4 microg/ml relative to control; details: dose 4.0 µg/ml
Escherichia coli [14] = test: Antibacterial activity against Escherichia coli infected in skin wound infection ICR mouse model assessed as reduction in wound area at 40 ug measured after 7 days by photographic analysis; format: functional; design: scale not given: the % may be the effect or the level left; details: dose 40 µg; time 7 day
Lipopolysaccharide (LPS) [15] = test: Binding affinity to LPS (unknown origin) assessed as dissociation constant by MST analysis
Escherichia coli [16] = test: Antibacterial activity against Escherichia coli ATCC 25922 incubated for 16 hrs under shaking condition by standard broth microdilution method; format: functional
Pseudomonas aeruginosa [17] = test: Antibacterial activity against Pseudomonas aeruginosa TL 11004 incubated for 16 hrs under shaking condition by standard broth microdilution method; format: functional
Klebsiella pneumoniae = test: Antibacterial activity against Klebsiella pneumoniae FK 16298 incubated for 16 hrs under shaking condition by standard broth microdilution method; format: functional
Cell membrane [18] = test: Induction of cytoplasmic membrane depolarization in […] assessed as change in fluorescence intensity by DISC3-5 dye based fluorescence analysis; format: subcellular
Escherichia coli [19] = test: Antibacterial activity against Escherichia coli CMCC 44102 incubated for 16 hrs under shaking condition by standard broth microdilution method; format: functional
Escherichia coli [20] = test: Antibacterial activity against Escherichia coli infected in skin wound infection ICR mouse model assessed as reduction in wound area at 20 ug measured after 7 days by photographic analysis; format: functional; design: scale not given: the % may be the effect or the level left; details: dose 20 µg; time 7 day
Escherichia coli [21] = test: Antibacterial activity against Escherichia coli infected in skin wound infection ICR mouse model assessed as wound scabbing at 20 ug measured after 5 days by photographic analysis; format: functional, organism-based; details: dose 20.0 µg, time 5.0 day
Lipopolysaccharide (LPS) [22] = test: Disaggregation of FITC-labeled Escherichia coli LPS assessed as fluorescence intensity at 0.1 uM measured for 30 mins relative to control
Lipopolysaccharide (LPS) [23] = test: Disaggregation of FITC-labeled Escherichia coli LPS assessed as change in fluorescence intensity at 0.01 to 100 uM measured for 30 mins; details: dose 0.01-100 µM
Cell membrane [24] = test: Disruption of cell membrane integrity in Staphylococcus aureus assessed as increase in red fluorescence intensity at 0.5 times MIC by STYO 9 and PI staining based confocal microscopy analysis; format: subcellular
Staphylococcus aureus [25] = test: Antibacterial activity against Staphylococcus aureus incubated for 60 mins in presence of LPS; format: functional, organism-based
Escherichia coli [26] = test: Antibacterial activity against Escherichia coli DC 29755 incubated for 16 hrs under shaking condition by standard broth microdilution method; format: functional
Lipid bilayer = test: Disruption of membrane integrity in bacterial cell membrane mimic POPC/POPG LUVs assessed as calcein leakage measured for 30 mins by fluorescence based analysis
Lipopolysaccharide (LPS) [27] = test: Disaggregation of FITC-labeled Escherichia coli LPS assessed as change in fluorescence intensity measured for 30 mins; details: dose 0.1-10 µM
Escherichia coli [28] = test: Antibacterial activity against Escherichia coli infected in skin wound infection ICR mouse model assessed as wound scabbing at 40 ug measured after 3 days by photographic analysis; format: functional, organism-based; details: dose 40.0 µg, time 3.0 day
Cell membrane [29] = test: Disruption of cell membrane integrity in Escherichia coli assessed as increase in red fluorescence intensity at 0.5 times MIC by STYO 9 and PI staining based confocal microscopy analysis; format: subcellular
Cell membrane [30] = test: Induction of cytoplasmic membrane depolarization in Pseudomonas aeruginosa by DISC3-5 dye based fluorescence analysis; format: subcellular
Cell membrane [31] = test: Induction of cytoplasmic membrane depolarization in Pseudomonas aeruginosa assessed as change in fluorescence intensity in protoplast by DISC3-5 dye based fluorescence analysis; format: subcellular
Cell membrane [32] = test: Induction of outer membrane permeability in Pseudomonas aeruginosa assessed as fluorescence intensity by 1-N-Nphenylnaphthylamine fluorescent probe based analysis; format: subcellular
Staphylococcus aureus [33] = test: Antibacterial activity against Staphylococcus aureus incubated for 16 hrs under shaking condition in presence of LPS by standard broth microdilution method; format: functional, organism-based
Cell membrane [34] = test: Induction of cytoplasmic membrane depolarization in Pseudomonas aeruginosa assessed as change in fluorescence intensity by DISC3-5 dye based fluorescence analysis; format: subcellular
Cell membrane [35] = test: Induction of cell membrane depolarization in Pseudomonas aeruginosa assessed as fluorescence intensity by DISC3-5 dye based fluorescence analysis; format: subcellular
Pseudomonas aeruginosa [36] = test: Antibacterial activity against Pseudomonas aeruginosa TL 11005 incubated for 16 hrs under shaking condition by standard broth microdilution method; format: functional
Pseudomonas aeruginosa [37] = test: Antibacterial activity against Pseudomonas aeruginosa TL 11001 incubated for 16 hrs under shaking condition by standard broth microdilution method; format: functional
Lipopolysaccharide (LPS) [38] = test: Disaggregation of FITC-labeled Escherichia coli LPS assessed as fluorescence intensity at 0.01 uM measured for 30 mins relative to control

Ac-AARIFSRILRGALRVL-NH2
MIC (Escherichia coli [1]): 8 µg/mL
MIC (Pseudomonas aeruginosa [2]): 16 µg/mL
MHC [3]: 179 µg/mL
HC50 [4]: 179 µg/mL
MIC (Staphylococcus aureus [5]): 4 µg/mL
MIC (Staphylococcus aureus [6]): 8 µg/mL

Ac-AARIFSRILFGALRVL-NH2
MIC (Escherichia coli [1]): 32 µg/mL
MIC (Pseudomonas aeruginosa [2]): 32 µg/mL
MHC [3]: 110 µg/mL
HC50 [4]: 110 µg/mL
MIC (Staphylococcus aureus [5]): 8 µg/mL
MIC (Staphylococcus aureus [6]): 4 µg/mL

Ac-AARIPSRILFRALRVL-NH2
MIC (Escherichia coli [1]): 32 µg/mL
MIC (Pseudomonas aeruginosa [2]): 64 µg/mL
MHC [3]: > 512 µg/mL
HC50 [4]: > 512 µg/mL
MIC (Staphylococcus aureus [5]): 32 µg/mL
Activity (Cell membrane [7]): Active
MIC (Staphylococcus aureus [6]): 16 µg/mL

Ac-AARILSRILRGALRVL-NH2
MIC (Escherichia coli [1]): 32 µg/mL
MIC (Pseudomonas aeruginosa [2]): 16 µg/mL
MHC [3]: 403 µg/mL
HC50 [4]: 403 µg/mL
MIC (Staphylococcus aureus [5]): 4 µg/mL
MIC (Staphylococcus aureus [6]): 8 µg/mL

Ac-AARIPSRILFFALVRL-NH2
MIC (Escherichia coli [1]): 64 µg/mL
MIC (Pseudomonas aeruginosa [2]): > 512 µg/mL
MHC [3]: > 512 µg/mL
HC50 [4]: > 512 µg/mL
MIC (Staphylococcus aureus [5]): 16 µg/mL
Activity (Cell membrane [7]): Active
MIC (Staphylococcus aureus [6]): 16 µg/mL

Ac-AARILSRILRFALRVL-NH2
MIC (Escherichia coli [1]): > 512 µg/mL
MIC (Pseudomonas aeruginosa [2]): > 512 µg/mL
Activity (Cell membrane [8]): Active
Activity (Cell membrane [9]): Active
MHC [3]: 34.197 µg/mL
HC50 [4]: 34.2 µg/mL
MIC (Staphylococcus aureus [5]): 32 µg/mL
Activity (Cell membrane [10]): Active
MIC (Staphylococcus aureus [6]): 16 µg/mL
Flu intensity (Cell membrane [11]): 2410

Ac-AARIPSRILRGALRVL-NH2
Flu intensity (Lipopolysaccharide (LPS) [12]): 195
Activity (Lipopolysaccharide (LPS) [13]): > 90%
MIC (Escherichia coli [1]): 16 µg/mL
Activity (Escherichia coli [14]): 44.8%
Kd (Lipopolysaccharide (LPS) [15]): 0.152 µM
MIC (Escherichia coli [16]): 64 µg/mL
MIC (Pseudomonas aeruginosa [2]): 32 µg/mL
MIC (Pseudomonas aeruginosa [17]): 128 µg/mL
MIC (Klebsiella pneumoniae): 128 µg/mL
Activity (Cell membrane [8]): Active
Activity (Cell membrane [18]): Active
MIC (Escherichia coli [19]): 32 µg/mL
Activity (Escherichia coli [20]): 32.5%
Activity (Escherichia coli [21]): Active
Flu intensity (Lipopolysaccharide (LPS) [22]): 21.5
Activity (Lipopolysaccharide (LPS) [23]): Active
MHC [3]: > 512 µg/mL
Activity (Cell membrane [24]): Active
HC50 [4]: > 512 µg/mL
Activity (Staphylococcus aureus [25]): Dose-dependent-effect
MIC (Escherichia coli [26]): 64 µg/mL
Activity (Lipid bilayer): 10%
Activity (Lipopolysaccharide (LPS) [27]): Dose-dependent-effect
Activity (Escherichia coli [28]): Active
Activity (Cell membrane [29]): Active
MIC (Staphylococcus aureus [5]): 256 µg/mL
Activity (Cell membrane [30]): Active
Activity (Cell membrane [31]): Active
Flu intensity (Cell membrane [32]): 30000
Activity (Staphylococcus aureus [33]): Active
Activity (Cell membrane [34]): Active
Activity (Cell membrane [10]): Active
Flu intensity (Cell membrane [35]): 781
MIC (Pseudomonas aeruginosa [36]): 32 µg/mL
MIC (Staphylococcus aureus [6]): 128 µg/mL
MIC (Pseudomonas aeruginosa [37]): 512 µg/mL

Ac-AARIPSRILFGALRVL-NH2
MIC (Escherichia coli [1]): 64 µg/mL
Flu intensity (Lipopolysaccharide (LPS) [38]): -95
Kd (Lipopolysaccharide (LPS) [15]): 39.1 µM
MIC (Escherichia coli [16]): 128 µg/mL
MIC (Pseudomonas aeruginosa [2]): 256 µg/mL
MIC (Pseudomonas aeruginosa [17]): 512 µg/mL
MIC (Klebsiella pneumoniae): 256 µg/mL
Activity (Cell membrane [18]): Active
MIC (Escherichia coli [19]): 128 µg/mL
MHC [3]: > 512 µg/mL
HC50 [4]: > 512 µg/mL
MIC (Escherichia coli [26]): 128 µg/mL
Activity (Lipid bilayer): 50.1%
MIC (Staphylococcus aureus [5]): 128 µg/mL
Flu intensity (Cell membrane [32]): 10000
Activity (Cell membrane [34]): Active
Flu intensity (Cell membrane [35]): 676
MIC (Pseudomonas aeruginosa [36]): 128 µg/mL
MIC (Staphylococcus aureus [6]): 128 µg/mL
MIC (Pseudomonas aeruginosa [37]): 512 µg/mL

Ac-AARILSRILRFFLRVL-NH2
MIC (Escherichia coli [1]): 256 µg/mL
MIC (Pseudomonas aeruginosa [2]): > 512 µg/mL
MHC [3]: 13.37 µg/mL
HC50 [4]: 13.4 µg/mL
MIC (Staphylococcus aureus [5]): 128 µg/mL
MIC (Staphylococcus aureus [6]): 128 µg/mL

Ac-AARILSRILRRALRVL-NH2
MIC (Escherichia coli [1]): 4 µg/mL
MIC (Pseudomonas aeruginosa [2]): 8 µg/mL
Activity (Cell membrane [8]): Active
Activity (Cell membrane [18]): Active
Activity (Cell membrane [9]): Active
MHC [3]: 155 µg/mL
HC50 [4]: 155 µg/mL
MIC (Staphylococcus aureus [5]): 4 µg/mL
Activity (Cell membrane [34]): Active
Activity (Cell membrane [10]): Active
Activity (Cell membrane [7]): Active
MIC (Staphylococcus aureus [6]): 16 µg/mL
Flu intensity (Cell membrane [11]): 2300

Ac-AARILSRILFGALRVL-NH2
MIC (Escherichia coli [1]): 32 µg/mL
MIC (Pseudomonas aeruginosa [2]): 32 µg/mL
MHC [3]: 51.663 µg/mL
HC50 [4]: 51.7 µg/mL
MIC (Staphylococcus aureus [5]): 8 µg/mL
MIC (Staphylococcus aureus [6]): 8 µg/mL

Ac-AARILSRILSGALRVL-NH2
MIC (Escherichia coli [1]): 16 µg/mL
MIC (Pseudomonas aeruginosa [2]): 64 µg/mL
MHC [3]: 161 µg/mL
HC50 [4]: 161 µg/mL
MIC (Staphylococcus aureus [5]): 4 µg/mL
Activity (Cell membrane [7]): Active
MIC (Staphylococcus aureus [6]): 4 µg/mL

Ac-AAKILSKILKGALKVL-NH2
MIC (Escherichia coli [1]): 8 µg/mL
MIC (Pseudomonas aeruginosa [2]): 16 µg/mL
MHC [3]: 442 µg/mL
HC50 [4]: 442 µg/mL
MIC (Staphylococcus aureus [5]): 8 µg/mL
MIC (Staphylococcus aureus [6]): 4 µg/mL

Ac-AARIPSRILKGALRVL-NH2
MIC (Escherichia coli [1]): 128 µg/mL
MIC (Pseudomonas aeruginosa [2]): 64 µg/mL
MHC [3]: > 512 µg/mL
HC50 [4]: > 512 µg/mL
MIC (Staphylococcus aureus [5]): 512 µg/mL
MIC (Staphylococcus aureus [6]): 256 µg/mL
